The source of these data is US20250177383A1, “DI-CYCLOPROPYL BASED IL-17A MODULATORS AND USES THEREOF” (DICE ALPHA, INC., priority 2022, published 2025).

In the test the target is T1, IL-17A/A (Homo sapiens, UniProt Q16552).
T1 sequence (Q16552 24-155): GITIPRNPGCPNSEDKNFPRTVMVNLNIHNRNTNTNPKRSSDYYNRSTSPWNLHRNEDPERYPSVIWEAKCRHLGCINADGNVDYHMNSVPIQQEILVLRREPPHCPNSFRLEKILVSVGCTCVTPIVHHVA
Kind of test: IL-17A/A HEK-Blue Cell Assay. The settings on record: HEK-Blue IL-17 reporter cells, IL-17A/A stimulation, 20 hours, SEAP readout; read-out: IL17 AA HEK-5 pIC50 (converted). The class given is cell-based. The protocol: The HEK-Blue IL-17 reporter cell line (Fisher #NC1408637) was used for cell-based IL-17A/A inhibition assays. Cells were grown and prepared for assays according to the manufacturer's instructions. This cell line consists of HEK 293 cells that were designed to expressed IL-17R^A, IL-17R^C, and the ActI adapter molecule, the combination of which, when stimulated by IL-17A/A activates a NFκB promoter and drives expression of a recombinant Secreted Alkaline Phosphatase (SEAP) protein. Media from the cells is then added to a development reagent (Quanti-Blue Substrate, Fisher #NC9711613), and read at A630.
Compounds were titrated in DMSO, with a top final compound concentration of 10 uM and added to the cells immediately before adding IL-17A/A (Genscript #Z03228). The cells, compound, and IL-17A/A were then incubated for 20 hours before media was removed for SEAP analysis. The resulting inhibition curve was then analyzed using a Dotmatics screening protocol, and IC50 values were determined using a 4-parameter nonlinear fit. DMSO was added to a universal final concentration of 0.1% to optimize background. IL-17A/A inhibition data is provided in Table 1 for selected compounds.
In the case of `CCC(=O)N[C@@H](C(=O)N1CCC(C)(O)CC1)[C@@H](C)c1ccc(NC(=O)[C@@H](NC(=O)c2ccnn2CCN2CCOCC2)C(C2CC2)C2CC2)c(F)c1` [Compound 252], the IC50 was 0.01 to 0.1 µM. In the case of `CCn1nccc1C(=O)N[C@H](C(=O)Nc1ccc([C@H](C)[C@@H](NC(=O)CCF)C(=O)N2CCN(C)CC2)cc1F)C(C1CC1)C1CC1` [Compound 218], the IC50 is 0.01 to 0.1 µM. The same measure for `CCC(=O)N[C@@H](C(=O)N1CCN(C)CC1)[C@@H](C)c1ccc(NC(=O)[C@@H](NC(=O)c2ccnn2CC(F)F)C(C2CC2)C2CC2)c(F)c1` [Compound 231]: 0.01 to 0.1 µM; for `CCC(=O)N[C@@H](C(=O)N1CCN(C)CC1)[C@@H](C)c1ccc(NC(=O)[C@@H](NC(=O)c2ccnn2CC(F)(F)F)C(C2CC2)C2CC2)c(F)c1` [Compound 249]: 0.01 to 0.1 µM; for `CCC(=O)N[C@@H](C(=O)N1C[C@H]2C[C@@H]1CN2C)[C@@H](C)c1ccc(NC(=O)[C@@H](NC(=O)c2ccnn2CC)C(C2CC2)C2CC2)c(F)c1` [Compound 236]: 0.01 to 0.1 µM. The same measure for `CCC(=O)N[C@@H](C(=O)N1CCN(C)CC1)[C@@H](C)c1ccc(NC(=O)[C@H](NC(=O)c2ccnn2CC)C(C2CC2)C2CC2)c(F)c1` [Compound 201]: 0.01 to 0.1 µM.

As to `CO[C@@H](C)C(=O)N[C@@H](C(=O)N1C[C@H]2CC[C@@H](C1)N2C)[C@@H](C)c1ccc(NC(=O)[C@@H](NC(=O)c2ccnn2C(C)C)C(C2CC2)C2CC2)c(F)c1` [Compound 261], the IC50 is less than 0.01 µM. The same measure for `CCC(=O)N[C@@H](C(=O)N1CCOCC1)[C@@H](C)c1ccc(NC(=O)[C@@H](NC(=O)c2ccnn2CCN2CCOCC2)C(C2CC2)C2CC2)c(F)c1` [Compound 253]: 0.1 to 10 µM; for `CCC(=O)N[C@@H](C(=O)N1CCN(C)CC1)[C@@H](C)c1ccc(NC(=O)[C@@H](NC(=O)c2nonc2CC)C(C2CC2)C2CC2)c(F)c1` [Compound 204]: less than 0.01 µM; for `CO[C@@H](C)C(=O)N[C@@H](C(=O)N1CCN(C)[C@H](C)C1)[C@@H](C)c1ccc(NC(=O)[C@@H](NC(=O)c2ccnn2C(C)C)C(C2CC2)C2CC2)c(F)c1` [Compound 260]: less than 0.01 µM.

On to `CCC(=O)N[C@@H](C(=O)N1CC[C@H](N(C)C)C1)[C@@H](C)c1ccc(NC(=O)[C@@H](NC(=O)c2ccnn2CC)C(C2CC2)C2CC2)c(F)c1` [Compound 240], for which the IC50 was 0.01 to 0.1 µM. For the molecule `CCC(=O)N[C@@H](C(=O)N1CCN(C)[C@H](C)C1)[C@@H](C)c1ccc(NC(=O)[C@@H](NC(=O)c2ccnn2C2CC2)C(C2CC2)C2CC2)c(F)c1` [Compound 229], the IC50 was less than 0.01 µM. Consider `CCOC(=O)N1CC[C@H]1C(=O)N[C@@H](C(=O)N1CCN(C)CC1)[C@@H](C)c1ccc(NC(=O)[C@@H](NC(=O)C2(F)CC2)C(C2CC2)C2CC2)c(F)c1` [Compound 274], for which the IC50 was 0.01 to 0.1 µM. The same measure for `CCC(=O)N[C@@H](C(=O)N1CC[C@H](N(C)C)C1)[C@@H](C)c1ccc(NC(=O)[C@@H](NC(=O)c2ccnn2C(C)C)C(C2CC2)C2CC2)c(F)c1` [Compound 265]: less than 0.01 µM; for `CCC(=O)N[C@@H](C(=O)N1C[C@H]2C[C@@H]1CN2C)[C@@H](C)c1ccc(NC(=O)[C@@H](NC(=O)c2ccnn2C(C)C)C(C2CC2)C2CC2)c(F)c1` [Compound 266]: 0.01 to 0.1 µM. The same measure for `CCc1nonc1C(=O)N[C@H](C(=O)Nc1ccc([C@H](C)[C@@H](NC(=O)[C@H](C)OC)C(=O)N2CCN(C)CC2)cc1F)C(C1CC1)C1CC1` [Compound 220]: less than 0.01 µM; for `CCC(=O)N[C@@H](C(=O)N1CCN(C)CC1)[C@@H](C)c1ccc(NC(=O)[C@@H](NC(=O)c2ccnn2C2CC2(F)F)C(C2CC2)C2CC2)c(F)c1` (single isomer, unassigned) [Compound 234]: less than 0.01 µM. In the case of `CCn1nccc1C(=O)N[C@H](C(=O)Nc1ccc([C@H](C)[C@@H](NC(=O)[C@H](C)OC)C(=O)N2C[C@H]3CC[C@@H](C2)N3C)cc1F)C(C1CC1)C1CC1` [Compound 254] it was less than 0.01 µM.
